Values quoted from earlier work in US20140011742A1, “Bioactive Peptides and Proteins Containing Bioactive Peptides, their Uses and Processes for Making the Same” (MCGILL UNIVERSITY, priority 2010, published 2014).

Settings: compared with β-Lg hydrolysates; as previously reported

Structure (SMILES): O=C1O[C@H]([C@@H](O)CO)C(O)=C1O [Vitamin C]
- radical scavenging activity: comparable radical scavenging activity
